This is an account of results in patent US20230278995A1, “1,3,4-OXADIAZOLE DERIVATIVE COMPOUNDS AS HISTONE DEACETYLASE 6 INHIBITOR, AND THE PHARMACEUTICAL COMPOSITION COMPRISING THE SAME” (CHONG KUN DANG PHARMACEUTICAL CORP., priority 2020, published 2023).

The target in experiment [1] is T1, human recombinant HDAC1 (Homo sapiens, UniProt Q13547).
T1 construct: purchased Enzo Life Sciences, Inc. BML-SE456
Put plainly: HDAC enzyme activity inhibition assay (HDAC Fluorimetric Drug Discovery Kit), HDAC1. The format is biochemical. The settings on record: human recombinant HDAC1, Fluor de Lys-SIRT1 substrate, 30° C. 60 minutes. As for the experimental part:
(§1) For the HDAC1 enzyme activity test, human recombinant HDAC1 (BML-SE456) was used as an enzyme source and Fluor de Lys©-SIRT1 (BNL-K1177) was used as a substrate. After dispensing 5-fold diluted compounds into a 96-well plate, 0.3 μg of enzyme and 10 μM substrate were added to each well of the plate and allowed to react at 30° C. for 60 minutes. Next, Fluor de Lys© Developer II (BML-K1176) was added and reacted for 30 minutes to complete the reaction, and then the fluorescence values (Ex 360, Em 460) were measured using a multi-plate reader (Flexstation 3, Molecular Device). The HDAC6 enzymes were tested using human recombinant HDAC6 (382180) from Calbiochem Inc., according to the same protocol as the HDAC1 enzyme activity test method. With respect to the final result values, respective IC50 values were calculated using GraphPad Prism 4.0 program (Table 2).

In experiment [2] the target is T2, human recombinant HDAC6 (Homo sapiens, UniProt Q9UBN7).
T2 construct: purchased Calbiochem Inc. 382180
T2 sequence (Q9UBN7 1-1215): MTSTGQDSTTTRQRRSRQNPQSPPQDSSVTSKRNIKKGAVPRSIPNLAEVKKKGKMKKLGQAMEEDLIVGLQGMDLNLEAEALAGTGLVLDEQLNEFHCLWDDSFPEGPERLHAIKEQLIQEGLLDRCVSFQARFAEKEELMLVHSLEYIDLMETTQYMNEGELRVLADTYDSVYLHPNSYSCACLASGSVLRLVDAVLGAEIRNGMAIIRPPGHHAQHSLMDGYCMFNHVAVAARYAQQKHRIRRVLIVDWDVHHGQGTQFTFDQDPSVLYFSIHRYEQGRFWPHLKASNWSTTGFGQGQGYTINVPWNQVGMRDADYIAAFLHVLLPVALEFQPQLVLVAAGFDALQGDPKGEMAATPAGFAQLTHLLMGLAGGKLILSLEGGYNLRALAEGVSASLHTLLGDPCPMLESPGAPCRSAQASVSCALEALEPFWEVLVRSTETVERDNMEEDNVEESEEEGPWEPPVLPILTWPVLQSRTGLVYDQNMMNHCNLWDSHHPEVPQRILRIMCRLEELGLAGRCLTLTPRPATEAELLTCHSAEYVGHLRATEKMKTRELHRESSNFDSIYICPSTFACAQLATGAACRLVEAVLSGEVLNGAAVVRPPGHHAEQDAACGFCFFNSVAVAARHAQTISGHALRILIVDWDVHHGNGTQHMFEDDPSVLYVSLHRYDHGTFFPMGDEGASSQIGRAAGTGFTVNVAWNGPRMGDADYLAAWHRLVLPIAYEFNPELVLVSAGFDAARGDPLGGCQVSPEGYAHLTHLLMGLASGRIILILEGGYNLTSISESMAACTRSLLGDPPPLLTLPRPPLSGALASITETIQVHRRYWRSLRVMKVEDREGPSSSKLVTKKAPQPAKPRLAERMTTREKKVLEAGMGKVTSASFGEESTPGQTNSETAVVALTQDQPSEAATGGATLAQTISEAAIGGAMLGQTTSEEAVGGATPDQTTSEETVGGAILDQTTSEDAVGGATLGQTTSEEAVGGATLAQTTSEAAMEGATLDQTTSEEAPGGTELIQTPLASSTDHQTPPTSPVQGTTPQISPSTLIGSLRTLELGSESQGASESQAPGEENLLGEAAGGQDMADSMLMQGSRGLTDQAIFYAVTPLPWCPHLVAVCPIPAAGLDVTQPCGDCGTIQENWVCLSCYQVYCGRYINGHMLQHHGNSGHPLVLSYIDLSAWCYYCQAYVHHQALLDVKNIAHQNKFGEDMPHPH
Put plainly: HDAC enzyme activity inhibition assay (HDAC Fluorimetric Drug Discovery Kit), HDAC6. The settings on record: for HDAC6 selectivity (fold): HDAC1 vs HDAC6; for IC50: human recombinant HDAC6, same protocol as HDAC1. The format is biochemical. Here is the method:
as §1

A value given as a limit tells only on which side of the number the result lay.

T1 sequence (Q13547 whole entry): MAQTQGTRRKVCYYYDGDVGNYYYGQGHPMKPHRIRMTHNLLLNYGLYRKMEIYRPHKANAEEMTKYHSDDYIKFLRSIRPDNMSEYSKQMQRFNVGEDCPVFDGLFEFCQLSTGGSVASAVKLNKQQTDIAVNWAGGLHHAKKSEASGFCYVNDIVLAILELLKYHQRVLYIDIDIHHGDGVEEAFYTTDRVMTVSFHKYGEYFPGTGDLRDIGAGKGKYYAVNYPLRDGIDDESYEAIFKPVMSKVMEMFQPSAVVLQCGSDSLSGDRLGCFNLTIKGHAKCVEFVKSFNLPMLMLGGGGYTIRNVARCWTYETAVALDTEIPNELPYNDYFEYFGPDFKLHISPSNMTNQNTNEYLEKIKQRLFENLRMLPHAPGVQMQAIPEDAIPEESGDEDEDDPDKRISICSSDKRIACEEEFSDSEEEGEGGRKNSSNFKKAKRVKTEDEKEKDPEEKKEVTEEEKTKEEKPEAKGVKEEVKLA

The IC50 is the point on the concentration scale where inhibition reaches its midpoint. As to `CCCN1CC(F)(C(=O)N(Cc2ccc(-c3nnc(C(F)F)o3)cn2)c2cccc(F)c2)C1` [Compound 3091, N-((5-(5-(difluoromethyl)-1,3,4-oxadiazol-2-yl)pyridin-2-yl)methyl)-3-fluoro-N-(3-fluorophenyl)-1-propylazetidine-3-carboxamide], the half-inhibitory concentration (IC50) was greater than 50000 nM in experiment [1] and 34.8 nM in experiment [2]. For the same molecule, the “HDAC6 selectivity (fold)” value in experiment [2] is 1,436 fold.

For the molecule `CC(C)CN1CC(F)(C(=O)N(Cc2ccc(-c3nnc(C(F)F)o3)cn2)c2cccc(F)c2)C1` [Compound 3093, N-((5-(5-(difluoromethyl)-1,3,4-oxadiazol-2-yl)pyridin-2-yl)methyl)-3-fluoro-N-(3-fluorophenyl)-1-isobutylazetidine-3-carboxamide], the IC50 in experiment [1] was greater than 50000 nM. In experiment [2], the “HDAC6 selectivity (fold)” value is recorded as 1,543 fold and the concentration for half-maximal inhibition (IC50) stood at 32.4 nM.

As for `CC(CO)N1CC(F)(C(=O)N(Cc2ccc(-c3nnc(C(F)F)o3)cn2)c2cccc(F)c2)C1` (stereo not drawn) [Compound 3094, N-((5-(5-(difluoromethyl)-1,3,4-oxadiazol-2-yl)pyridin-2-yl)methyl)-3-fluoro-N-(3-fluorophenyl)-1-(1-hydroxypropan-2-yl)azetidine-3-carboxamide], the IC50 in experiment [1] was greater than 50000 nM; in experiment [2] it was 26.3 nM. In addition, the “HDAC6 selectivity (fold)” value in experiment [2] is given as 1,901 fold.

For `O=C(N(Cc1ccc(-c2nnc(C(F)F)o2)cn1)c1cccc(F)c1)C1(F)CN(C2CCC(F)(F)CC2)C1` [Compound 3096, 1-(4,4-difluorocyclohexyl)-N-((5-(5-(difluoromethyl)-1,3,4-oxadiazol-2-yl)pyridin-2-yl)methyl)-3-fluoro-N-(3-fluorophenyl)azetidine-3-carboxamide], in experiment [1], the IC50 is greater than 50000 nM. Besides, in experiment [2], the “HDAC6 selectivity (fold)” value is reported as 1,385 fold and the half-inhibitory concentration (IC50) was determined as 36.1 nM.

As for `CN(C)CCC(=O)N1CC(F)(C(=O)N(Cc2ccc(-c3nnc(C(F)F)o3)cn2)c2cccc(F)c2)C1` [Compound 3097, N-((5-(5-(difluoromethyl)-1,3,4-oxadiazol-2-yl)pyridin-2-yl)methyl)-1-(3-(dimethylamino)propanoyl)-3-fluoro-N-(3-fluorophenyl)azetidine-3-carboxamide], the IC50 in experiment [1] is greater than 50000 nM. Further, in experiment [2], the “HDAC6 selectivity (fold)” value is recorded as 1,612 fold and the IC50 is 31 nM.

Turning to `CN(C)CCCC(=O)N1CC(F)(C(=O)N(Cc2ccc(-c3nnc(C(F)F)o3)cn2)c2cccc(F)c2)C1` [Compound 3098, N-((5-(5-(difluoromethyl)-1,3,4-oxadiazol-2-yl)pyridin-2-yl)methyl)-1-(4-(dimethylamino)butanoyl)-3-fluoro-N-(3-fluorophenyl)azetidine-3-carboxamide], the IC50 in experiment [1] was greater than 50000 nM. Also, in experiment [2], the “HDAC6 selectivity (fold)” value was 1,992 fold and the IC50 stood at 25.1 nM.

In the case of `CN1CC(N2CC(F)(C(=O)N(Cc3ccc(-c4nnc(C(F)F)o4)cn3)c3ccccc3)C2)C1` [Compound 3105, N-((5-(5-(difluoromethyl)-1,3,4-oxadiazol-2-yl)pyridin-2-yl)methyl)-3-fluoro-1′-methyl-N-phenyl-[1,3′-biazetidine]-3-carboxamide], in experiment [1], the concentration for half-maximal inhibition (IC50) is greater than 50000 nM. Further, in experiment [2], the “HDAC6 selectivity (fold)” value stood at 771 fold and the IC50 turned out to be 64.8 nM.

For `CCN1CC(N2CC(F)(C(=O)N(Cc3ccc(-c4nnc(C(F)F)o4)cn3)c3ccccc3)C2)C1` [Compound 3106, N-((5-(5-(difluoromethyl)-1,3,4-oxadiazol-2-yl)pyridin-2-yl)methyl)-1′-ethyl-3-fluoro-N-phenyl-[1,3′-biazetidine]-3-carboxamide], the IC50 in experiment [1] is greater than 50000 nM; in experiment [2], 39.6 nM. Also, the “HDAC6 selectivity (fold)” value in experiment [2] is reported as 1,262 fold.

With `CCCN1CC(N2CC(F)(C(=O)N(Cc3ccc(-c4nnc(C(F)F)o4)cn3)c3ccccc3)C2)C1` [Compound 3107, N-((5-(5-(difluoromethyl)-1,3,4-oxadiazol-2-yl)pyridin-2-yl)methyl)-3-fluoro-N-phenyl-1′-propyl-[1,3′-biazetidine]-3-carboxamide], the IC50 is greater than 50000 nM in experiment [1] and 47.2 nM in experiment [2]. The “HDAC6 selectivity (fold)” value in experiment [2] was 1,059 fold.

Consider `CCCCN1CC(N2CC(F)(C(=O)N(Cc3ccc(-c4nnc(C(F)F)o4)cn3)c3ccccc3)C2)C1` [Compound 3108, 1′-butyl-N-((5-(5-(difluoromethyl)-1,3,4-oxadiazol-2-yl)pyridin-2-yl)methyl)-3-fluoro-N-phenyl-[1,3′-biazetidine]-3-carboxamide], for which, in experiment [1], the concentration for half-maximal inhibition (IC50) is greater than 50000 nM. Moreover, in experiment [2], the “HDAC6 selectivity (fold)” value is on record as 1,827 fold and the half-maximal inhibitory concentration (IC50) turned out to be 27.4 nM.

`CN1CCC(N2CC(F)(C(=O)N(Cc3ccc(-c4nnc(C(F)F)o4)cn3)c3ccccc3)C2)CC1` [Compound 3110, N-((5-(5-(difluoromethyl)-1,3,4-oxadiazol-2-yl)pyridin-2-yl)methyl)-3-fluoro-1-(1-methylpiperidin-4-yl)-N-phenylazetidine-3-carboxamide]: in experiment [1], the concentration for half-maximal inhibition (IC50) was greater than 50000 nM. Also, in experiment [2], the “HDAC6 selectivity (fold)” value is 1,170 fold and the IC50 came out at 42.7 nM.

With `CCN1CCC(N2CC(F)(C(=O)N(Cc3ccc(-c4nnc(C(F)F)o4)cn3)c3ccccc3)C2)CC1` [Compound 3111, N-((5-(5-(difluoromethyl)-1,3,4-oxadiazol-2-yl)pyridin-2-yl)methyl)-1-(1-ethylpiperidin-4-yl)-3-fluoro-N-phenylazetidine-3-carboxamide], in experiment [1], the concentration for half-maximal inhibition (IC50) was greater than 50000 nM. Also, in experiment [2], the “HDAC6 selectivity (fold)” value came out at 931 fold and the IC50 was determined as 53.7 nM.

With `CCCN1CCC(N2CC(F)(C(=O)N(Cc3ccc(-c4nnc(C(F)F)o4)cn3)c3ccccc3)C2)CC1` [Compound 3112, N-((5-(5-(difluoromethyl)-1,3,4-oxadiazol-2-yl)pyridin-2-yl)methyl)-3-fluoro-N-phenyl-1-(1-propylpiperidin-4-yl)azetidine-3-carboxamide], the IC50 is greater than 50000 nM in experiment [1] and 24.7 nM in experiment [2]. Also, the “HDAC6 selectivity (fold)” value in experiment [2] is reported as 2,024 fold.

Turning to `CCCCN1CCC(N2CC(F)(C(=O)N(Cc3ccc(-c4nnc(C(F)F)o4)cn3)c3ccccc3)C2)CC1` [Compound 3113, 1-(1-butylpiperidin-4-yl)-N-((5-(5-(difluoromethyl)-1,3,4-oxadiazol-2-yl)pyridin-2-yl)methyl)-3-fluoro-N-phenylazetidine-3-carboxamide], the IC50 in experiment [1] is greater than 50000 nM. In experiment [2], the “HDAC6 selectivity (fold)” value is 1,543 fold and the IC50 was 32.4 nM.

On to `CC(C)CN1CCC(N2CC(F)(C(=O)N(Cc3ccc(-c4nnc(C(F)F)o4)cn3)c3ccccc3)C2)CC1` [Compound 3114, N-((5-(5-(difluoromethyl)-1,3,4-oxadiazol-2-yl)pyridin-2-yl)methyl)-3-fluoro-1-(1-isobutylpiperidin-4-yl)-N-phenylazetidine-3-carboxamide], for which the IC50 in experiment [1] is greater than 50000 nM. In addition, in experiment [2], the “HDAC6 selectivity (fold)” value was 1,524 fold and the IC50 came to 32.8 nM.

As to `CC(C)N1CCC(N2CC(F)(C(=O)N(Cc3ccc(-c4nnc(C(F)F)o4)cn3)c3ccccc3)C2)CC1` [Compound 3115, N-((5-(5-(difluoromethyl)-1,3,4-oxadiazol-2-yl)pyridin-2-yl)methyl)-3-fluoro-1-(1-isopropylpiperidin-4-yl)-N-phenylazetidine-3-carboxamide], the IC50 in experiment [1] was greater than 50000 nM. Moreover, in experiment [2], the “HDAC6 selectivity (fold)” value was 2,040 fold and the IC50 was found to be 24.5 nM.
